Results taken from US8101774B2, “Ester derivatives and medicinal use thereof” (Japan Tobacco Inc., priority 2004, dated 2012).

Biological target: T1, Microsomal triglyceride transfer protein (MTP) from human small intestine microsome (Homo sapiens, UniProt P55157)
T1 construct: Human small intestine microsome was dialyzed against 10 mM phosphate buffer; tissue Tissue Transforming Technologies, Inc; host or cells: human small intestine microsome
Experiment: Inhibition test of interliposomal triglyceride (TG) transfer activity by MTP
Type: biochemical
Details: purified MTP from human small intestine microsome, 37° C., 1.5 hours
Description: Microsomal triglyceride transfer protein (MTP) from human small intestine microsome (manufactured by Tissue Transforming Technologies, Inc.) was purified in such a way described below. Human small intestine microsome was dialyzed against 10 mM phosphate buffer (300 mL, pH 6.8) twice for about 2 hours and once for further not less than 12 hours, at about 4° C. After dialysis, the mixture was centrifuged at 4° C. and 15,000×g for 5 minutes and then the supernatant was recovered. The previously recovered supernatant was purified by column chromatography on diethylaminoethyl (DEAE) Sepharose using FPLC (Fast Performance Liquid Chromatography) system, and the purified MTP was used for the test as described below.
Small unilamellar-vesicle (SUV) liposome (hereinafter described as donor, containing 0.25% (mol/mol) triolein and 5% (mol/mol) cardiolipin) constituted by triolein labeled with ^14C and non-labeled SUV liposome (hereinafter described as acceptor, containing […] triolein) were prepared in such a way described below.
Firstly, in order to prepare the donor, there were volatilized under a stream of nitrogen gas a phosphatidylcholine solution containing phosphatidylcholine labeled with ^3H, a cardiolipin solution, and a triolein solution containing triolein labeled with ^14C (each solution had been already dissolved in an appropriate organic solvent), or in order to prepare the acceptor, there were volatilized under nitrogen flow a phosphatidylcholine solution containing phosphatidylcholine labeled with ^3H and a cardiolipin solution (each solution had been already dissolved in an appropriate organic solvent). An appropriate amount of a reaction buffer (15 mM Tris-HCl buffer containing 1 mM EDTA.Na2, 40 mM NaCl, and 0.5% (w/v) bovine serum albumin, pH 7.4) was added thereto to be emulsified. The emulsions were treated with ultrasonication under ice-cooling and centrifuged at 4° C. and 159,000×g for 2 hours. Each of the resulting supernatant was used for donor or acceptor.
Each radioactivity in the acceptor and the donor was measured by liquid scintillation counter, and a mixed solution of the acceptor and the donor was prepared with a reaction buffer so as to be a donor-derived radioactivity of 16,000 dpm/400 μL and a acceptor-derived radioactivity of 4,000 dpm/[…]. 400 μL of the mixed solution of the donor and the acceptor, 45 μL of the reaction buffer, 50 μL of MTP (20 μg/mL), and 5 μL of a sample dissolved in DMSO (dimethyl sulfoxide) or 5 μL of DMSO was mixed (total amount: 500 μL). The mixture was incubated at 37° C. for 1.5 hours. After completion of the incubation, 1.25 mL of a suspension of DEAE cellulose (66.7% (v/v)) in 15 mM Tris-HCl buffer (pH 7.4) containing 1 mM EDTA.Na2 was added to the above solution. The mixture was centrifuged to separate the donor (adsorbed on the DEAE cellulose to precipitate) and the acceptor (the supernatant). The radioactivity in the acceptor was measured by liquid scintillation counter. The value obtained by subtracting the radioactivity in a blank group from the radioactivity in the acceptor of a DMSO group was determined as MTP-mediated TG transfer activity, and it was compared with the value obtained by subtracting the radioactivity in the blank group from the radioactivity in a sample group. Here, the blank was prepared by adding 10 mM phosphate buffer (pH 6.8) containing 250 mM NaCl in place of MTP. Inhibition rate (%) was calculated from values obtained according to the following equation. Inhibition rate(%)=(1 minus((radioactivity of sample group minus radioactivity of blank group)/(radioactivity of DMSO group minus radioactivity of blank group)))×100.
50% Inhibition rate (IC50) was determined on the basis of the above equation.

T1 sequence (P55157 19-894): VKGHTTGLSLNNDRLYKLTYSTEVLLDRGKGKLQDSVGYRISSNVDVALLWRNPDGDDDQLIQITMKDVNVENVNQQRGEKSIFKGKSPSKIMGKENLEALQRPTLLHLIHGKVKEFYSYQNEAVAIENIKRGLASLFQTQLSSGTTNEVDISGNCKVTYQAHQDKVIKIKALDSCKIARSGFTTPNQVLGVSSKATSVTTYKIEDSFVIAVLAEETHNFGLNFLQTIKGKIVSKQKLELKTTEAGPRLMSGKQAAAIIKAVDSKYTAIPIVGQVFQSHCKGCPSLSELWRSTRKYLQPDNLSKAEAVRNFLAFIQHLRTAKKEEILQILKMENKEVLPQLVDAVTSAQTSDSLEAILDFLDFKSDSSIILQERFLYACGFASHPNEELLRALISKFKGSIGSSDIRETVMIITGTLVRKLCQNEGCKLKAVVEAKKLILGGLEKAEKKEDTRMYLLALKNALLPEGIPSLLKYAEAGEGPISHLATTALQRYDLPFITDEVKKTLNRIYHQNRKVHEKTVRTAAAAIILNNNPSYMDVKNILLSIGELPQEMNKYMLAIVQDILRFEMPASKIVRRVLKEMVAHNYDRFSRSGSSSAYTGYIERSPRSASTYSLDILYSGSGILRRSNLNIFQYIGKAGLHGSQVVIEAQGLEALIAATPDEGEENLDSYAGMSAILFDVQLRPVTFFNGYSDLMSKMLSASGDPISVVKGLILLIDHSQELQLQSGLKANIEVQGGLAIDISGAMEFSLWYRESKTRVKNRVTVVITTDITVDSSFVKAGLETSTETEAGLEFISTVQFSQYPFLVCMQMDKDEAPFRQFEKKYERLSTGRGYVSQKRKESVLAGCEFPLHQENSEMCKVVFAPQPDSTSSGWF
T1 sequence (P07237 18-508 partner): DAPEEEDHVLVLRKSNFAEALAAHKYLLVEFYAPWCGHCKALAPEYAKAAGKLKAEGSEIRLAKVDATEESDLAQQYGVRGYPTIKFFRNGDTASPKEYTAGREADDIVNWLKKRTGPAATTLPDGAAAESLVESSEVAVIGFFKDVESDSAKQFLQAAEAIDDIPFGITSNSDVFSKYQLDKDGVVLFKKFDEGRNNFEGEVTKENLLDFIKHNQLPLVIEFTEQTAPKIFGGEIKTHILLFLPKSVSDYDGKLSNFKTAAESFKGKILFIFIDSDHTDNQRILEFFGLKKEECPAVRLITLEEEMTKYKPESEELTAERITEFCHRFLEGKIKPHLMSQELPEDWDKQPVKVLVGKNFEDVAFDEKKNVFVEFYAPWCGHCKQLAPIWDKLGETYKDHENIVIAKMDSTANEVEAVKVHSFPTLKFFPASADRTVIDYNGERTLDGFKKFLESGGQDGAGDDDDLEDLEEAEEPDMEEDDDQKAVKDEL

Row | IC50 | Compound
1 | < 10 nM | CC(C)OC(=O)COC(=O)c1ccc(OC(=O)CCCc2ccc(NC(=O)c3ccccc3-c3ccc(C(F)(F)F)cc3)c(C(=O)N(C)C)c2)cc1 [Compound 1-102]
2 | < 10 nM | COC(=O)c1cc(Cl)c(OC(=O)CCCc2ccc(NC(=O)c3ccc(C)nc3-c3ccc(C(F)(F)F)cc3)c(C(=O)N(C)C)c2)c(OC)c1 [Compound 1-36, 3-chloro-4-[4-(3-dimethylcarbamoyl-4-{[6-methyl-2-(4-trifluoromethylphenyl)pyridine-3-carbonyl]amino}phenyl)butyryloxy]-5-methoxybenzoic acid methyl ester]
3 | < 10 nM | COC(=O)c1cc(OC)c(OC(=O)CCCc2ccc(NC(=O)c3ccc(C)nc3-c3ccc(C(F)(F)F)cc3)c(C(=O)N(C)C)c2)c(OC)c1 [Compound 1-39, 4-[4-(3-dimethylcarbamoyl-4-{[6-methyl-2-(4-trifluoromethylphenyl)pyridine-3-carbonyl]amino}phenyl)butyryloxy]-3,5-dimethoxybenzoic acid methyl ester]
4 | < 10 nM | COC(=O)c1cc(C)c(OC(=O)CCCc2ccc(NC(=O)c3ccccc3-c3ccc(C(F)(F)F)cc3)c(C(=O)N(C)C)c2)c(Cl)c1 [Compound 1-34, 3-chloro-4-(4-{3-dimethylcarbamoyl-4-[(4′-trifluoromethylbiphenyl-2-carbonyl)amino]phenyl}butyryloxy)-5-methylbenzoic acid methyl ester]
5 | < 10 nM | CCOC(=O)c1cc(C)c(OC(=O)CCCc2ccc(NC(=O)c3ccc(C)nc3-c3ccc(C(F)(F)F)cc3)c(C(=O)N(C)C)c2)c(Cl)c1 [Compound 1-112, 3-chloro-4-[4-(3-dimethylcarbamoyl-4-{[6-methyl-2-(4-trifluoromethylphenyl)pyridine-3-carbonyl]amino}phenyl)butyryloxy]-5-methylbenzoic acid ethyl ester]
6 | < 10 nM | CN(C)C(=O)c1cc(CCCC(=O)Oc2ccc(C(=O)OCc3ccsc3)cc2)ccc1NC(=O)c1ccccc1-c1ccc(C(F)(F)F)cc1 [Compound 1-99, 4-[4-(3-dimethylcarbamoyl-4-{(4′-trifluoromethylbiphenyl-2-carbonyl)amino}phenyl)butyryloxy]benzoic acid thiophen-3-ylmethyl ester]
7 | < 10 nM | COC(=O)c1cc(Br)c(OC(=O)CCCc2ccc(NC(=O)c3ccc(C)nc3-c3ccc(C(F)(F)F)cc3)c(C(=O)N(C)C)c2)c(OC)c1 [Compound 1-50, 3-bromo-4-[4-(3-dimethylcarbamoyl-4-{[6-methyl-2-(4-trifluoromethylphenyl)pyridine-3-carbonyl]amino}phenyl)butyryloxy]-5-methoxybenzoic acid methyl ester]
8 | < 10 nM | CN(C)C(=O)COC(=O)c1ccc(OC(=O)CCCc2ccc(NC(=O)c3ccccc3-c3ccc(C(F)(F)F)cc3)c(C(=O)N(C)C)c2)cc1 [Compound 1-85, 4-[4-(3-dimethylcarbamoyl-4-{(4′-trifluoromethylbiphenyl-2-carbonyl)amino}phenyl)butyryloxy]benzoic acid dimethylcarbamoylmethyl ester]
9 | < 10 nM | COC(=O)COC(=O)c1ccc(OC(=O)CCCc2ccc(NC(=O)c3ccccc3-c3ccc(C(F)(F)F)cc3)c(C(=O)N(C)C)c2)cc1 [Compound 1-86, 4-[4-(3-dimethylcarbamoyl-4-{(4′-trifluoromethylbiphenyl-2-carbonyl)amino}phenyl)butyryloxy]benzoic acid methoxycarbonylmethyl ester]
10 | < 10 nM | COC(=O)c1cc(C)c(OC(=O)CCCc2ccc(NC(=O)c3ccc(C)nc3-c3ccc(C(F)(F)F)cc3)c(C(=O)N(C)C)c2)c(C(F)(F)F)c1 [Compound 1-45, 4-[4-(3-dimethylcarbamoyl-4-{[6-methyl-2-(4-trifluoromethylphenyl)pyridine-3-carbonyl]amino}phenyl)butyryloxy]-3-methyl-5-trifluoromethylbenzoic acid methyl ester]
11 | < 10 nM | Cc1cccc(COC(=O)c2ccc(OC(=O)CCCc3ccc(NC(=O)c4ccccc4-c4ccc(C(F)(F)F)cc4)c(C(=O)N(C)C)c3)cc2)n1 [Compound 1-101, 4-[4-(3-dimethylcarbamoyl-4-{(4′-trifluoromethylbiphenyl-2-carbonyl)amino}phenyl)butyryloxy]benzoic acid 6-methylpyridin-2-ylmethyl ester]
12 | < 10 nM | CCc1cc(C(=O)OC)cc(F)c1OC(=O)CCCc1ccc(NC(=O)c2ccc(C)nc2-c2ccc(C(F)(F)F)cc2)c(C(=O)N(C)C)c1 [Compound 1-42, 4-[4-(3-dimethylcarbamoyl-4-{[6-methyl-2-(4-trifluoromethylphenyl)pyridine-3-carbonyl]amino}phenyl)butyryloxy]-3-ethyl-5-fluorobenzoic acid methyl ester]

More lines, now with the values behind:

Row | Compound | IC50
13 | COC(=O)c1ccc(OC(=O)CCCc2ccc(NC(=O)c3ccccc3-c3ccc(C(F)(F)F)cc3)c(C(=O)N(C)C)c2)cc1C [Compound 1-14, 4-(4-{3-dimethylcarbamoyl-4-[(4′-trifluoromethylbiphenyl-2-carbonyl)amino]phenyl}butyryloxy)-2-methyl benzoic acid methyl ester] | < 10 nM
14 | COC(=O)c1ccc(OC(=O)CCCc2ccc(NC(=O)c3ccccc3-c3ccc(C(F)(F)F)cn3)c(C(=O)N(C)C)c2)cc1 [Compound 1-19, 4-(4-{3-dimethylcarbamoyl-4-[2-(5-trifluoromethylpyridin-2-yl)benzoylamino]phenyl}butyryloxy)benzoic acid methyl ester] | 10 to 100 nM
15 | Cc1noc(-c2ccc(OC(=O)CCCc3ccc(NC(=O)c4ccccc4-c4ccc(C(F)(F)F)cc4)c(C(=O)N(C)C)c3)cc2)n1 [Compound 1-2, 4-{3-dimethylcarbamoyl-4-[(4′-trifluoromethylbiphenyl-2-carbonyl)amino]phenyl}butyric acid 4-(3-methyl-[1,2,4]oxadiazol-5-yl)phenyl ester] | < 10 nM
16 | COC(=O)c1ccc(OC(=O)CCCc2ccc(NC(=O)c3ccc(C)cc3-c3ccc(C(F)(F)F)cc3)c(C(=O)N(C)C)c2)cc1 [Compound 1-9, 4-(4-{3-dimethylcarbamoyl-4-[(5-methyl-4′-trifluoromethylbiphenyl-2-carbonyl)amino]phenyl}butyryloxy) benzoic acid methyl ester] | < 10 nM
17 | COC(=O)c1ccc(OC(=O)CCCc2ccc(NC(=O)c3ccc(C)nc3-c3ccc(C(F)(F)F)cc3)c(C(=O)N(C)C)c2)cc1 [Compound 1-13, 4-[4-(3-dimethylcarbamoyl-4-{[6-methyl-2-(4-trifluoromethylphenyl)pyridine-3-carbonyl]amino}phenyl)butyryloxy)benzoic acid methyl ester] | < 10 nM
18 | CCOC(=O)c1ccc(OC(=O)CCCc2ccc(NC(=O)c3ccccc3-c3ccc(C(F)(F)F)cc3)c(C(=O)N(C)C)c2)cc1 [Compound 1-6, 4-(4-{3-dimethylcarbamoyl-4-[(4′-trifluoromethylbiphenyl-2-carbonyl)amino]phenyl}butyryloxy)benzoic acid ethyl ester] | < 10 nM
19 | COC(=O)c1ccc(OC(=O)CCCc2ccc(NC(=O)c3ccccc3-c3ccc(C(F)(F)F)cc3)c(C(=O)N(C)C)c2)c(Cl)c1 [Compound 1-11, 3-chloro-4-(4-{3-dimethylcarbamoyl-4-[(4′-trifluoromethylbiphenyl-2-carbonyl)amino]phenyl}butyryloxy)benzoic acid methyl ester] | < 10 nM
20 | COC(=O)c1ccc(OC(=O)CCCc2ccc(NC(=O)c3ccccc3-c3ccc(C(F)(F)F)cc3)c(C(=O)N(C)C)c2)cc1C(F)(F)F [Compound 1-21, 4-(4-{3-dimethylcarbamoyl-4-[(4′-trifluoromethylbiphenyl-2-carbonyl)amino]phenyl}butyryloxy)-2-trifluoromethylbenzoic acid methyl ester] | 10 to 100 nM
